In patent US20140128352A1, “COMPOUNDS AND METHODS FOR MODULATING MITOCHONDRIAL METABOLISM AND REACTIVE OXYGEN SPECIES PRODUCTION” (Buck Institute for Research on Aging, priority 2012, published 2014):
“Also recorded” adds a separate entry of the source.

Experiments:
[1] = molecular target: T1, site IF (Rattus norvegicus, UniProt Q5XIH3); experiment: Retest of IF ROS production (expanded microplate panel); assay type: biochemical
T1 construct: freshly isolated muscle mitochondria were assayed; from tissue; host or cells: rat skeletal muscle mitochondria (Wistar, Harlan Laboratories)
Method: Compounds identified as site-selective hits as well as structural analogs were re-sourced from ChemBridge and dissolved in DMSO as 80 mM stocks. Master Titration Plates were prepared manually by serially diluting 80 mM compound stocks between 0.08 and 80 mM on 96-well microplates. Four compounds were titrated in duplicate on each plate. Additional DMSO controls were interspersed across these plates to serve as local normalization controls during analysis since two-way median polishing was not appropriate. Just prior to use, compounds were diluted 100-fold with standard buffer (10X). The same known inhibitor positive controls were included on each plate as during high-throughput screening. The five core ROS assays and single ΔΨm assay were carried out as in the initial high-throughput screen. In addition, several assays were included to help validate the specificity of the compounds for a given site of production. […] The use of different substrates was designed to reveal compounds that disrupt mitochondrial function in a substrate specific manner. […] Most frequently, these changes involved the use of different substrates to supply electrons from an alternative entry point in the chain. If a site of ROS production is being targeted selectively by a compound, then in many cases the supply of electrons should not influence the effectiveness of this compound at suppressing ROS production. […] The fluorescence values in each well were scaled in relation to the intra-plate DMSO and known inhibitor controls as in the high-throughput screen except that median values for local interspersed DMSO wells (3-6 wells) were used rather than just the 8 DMSO wells in columns 1 and 12. This normalization was applied in place of the two-way median polish used during high-throughput screening to minimize row and column effects. […] At this stage, strong candidates were not necessarily excluded from further testing if subtle off-target effects were observed (e.g. loss of specificity or signs of general inhibition at the highest concentrations). Rather, these candidates were often pursued for more detailed mechanistic studies with the expectation that subsequent structure activity analysis would provide insight into which structurally related compounds would provide the optimal specificity for a given site of production.

[2] = system: mitochondrial membrane potential (ΔΨm); experiment: Retest ΔΨm assays (different substrates, with and without nigericin); assay type: biochemical, rat; conditions: various substrates
Method: The five core ROS assays and single ΔΨm assay were carried out as in the initial high-throughput screen. In addition, several assays were included to help validate the specificity of the compounds for a given site of production. […] The use of different substrates was designed to reveal compounds that disrupt mitochondrial function in a substrate specific manner. […] Most frequently, these changes involved the use of different substrates to supply electrons from an alternative entry point in the chain. If a site of ROS production is being targeted selectively by a compound, then in many cases the supply of electrons should not influence the effectiveness of this compound at suppressing ROS production. […] Candidate compounds that remained site-selective following robotics assisted retesting were subsequently tested for effects on ROS production and ΔΨm with a Varian Cary Eclipse fluorimeter (excitation 550 nm, emission at 590 nm). This experimental format allows kinetic measurements of ROS production and ΔΨm with more accurate temperature control, sample stirring, and background correction. […] Conditions were generally as described for the various microplate assays with the following exceptions: HRP was increased to 5 units/mL, Amplex UltraRed was increased to 50 μM, temperature was always 37° C., samples were continuously stirred, and baseline rates of fluorescence change in the absence of substrate were acquired prior to their addition. Example protocols for cuvette based measurement of site IQ and site IIIQo ROS production are described in Affourtit et al., 2012. […] Biochim. Biophys. Acta. 1777(5): 397-403. An additional advantage of the kinetic cuvette based assays was the ability to perform inline additions to monitor the relative effect of a test compound against multiple conditions in the same cuvette. Therefore, the selectivity of a compound for one site of ROS production can be monitored by adding substrates and select known inhibitors in defined sequences to alternately provide and trap electrons at various sites in the chain. […]

T1 sequence (Q5XIH3 21-464 limits assumed): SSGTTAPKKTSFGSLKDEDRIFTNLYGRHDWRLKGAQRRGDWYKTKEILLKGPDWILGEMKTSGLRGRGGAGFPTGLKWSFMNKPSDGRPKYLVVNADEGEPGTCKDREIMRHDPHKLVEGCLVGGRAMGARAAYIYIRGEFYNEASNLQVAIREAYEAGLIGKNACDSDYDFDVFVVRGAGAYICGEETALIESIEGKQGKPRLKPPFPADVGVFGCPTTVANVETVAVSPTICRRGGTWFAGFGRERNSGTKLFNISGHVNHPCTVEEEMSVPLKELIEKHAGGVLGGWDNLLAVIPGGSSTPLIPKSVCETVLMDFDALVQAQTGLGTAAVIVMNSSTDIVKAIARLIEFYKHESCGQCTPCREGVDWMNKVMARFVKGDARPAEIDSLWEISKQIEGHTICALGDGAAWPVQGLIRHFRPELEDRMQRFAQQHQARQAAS

Structure (SMILES)	effect on IF ROS and selectivity for site IF [1]	effect on ΔΨm [2]	inhibition at 2.5 µM ([1]; 2.5 μM) [%]
COc1cc(CN(CCN(C)C)Cc2ccccc2)cc(OC)c1 [Compound 31]	improved selectivity toward the IF site in combination with a lowered effect on ΔΨm	–	–
O=C(O)CCC(=O)Nc1ccc(-c2nc3cc4ccccc4cc3[nH]2)cc1 [Compound 61]	–	increased off-target effect on ΔΨm in the absence of nigericin	–
O=C(O)C1CCCCC1C(=O)NC1CCCCC1 (stereo not shown) [Compound 19]	selectively lowers ROS production from site IF	–	24
Cc1ccc(C)c(CN(CCCN(C)C)CCCN(C)C)c1 [Compound 32]	selectively lowers ROS production from site IF; also recorded: further improved selectivity for IF without compromising ΔΨm	without any significant effects on membrane potential	–
COc1ccc(Cl)cc1N(Cc1ccccc1)Cc1ccccc1 [Compound 34]	–	a consistent increase in ΔΨm was observed independent of both substrate and ΔpH at 8 μM; also recorded: increases ΔΨm at 8 μM but collapses ΔΨm above this concentration	–
